Results published in patent EP2389922A1, “Cyclohexyl carbamate compounds as anti-ageing actives” (Symrise AG, priority 2010, dated 2011).

Tests used:
proteasome = biological target: T1, proteasome (Homo sapiens, UniProt P28074); experiment: Measurement of proteasome activity using cell lysates (HaCaT cells, MCA liberation); assay type: biochemical; conditions: HaCaT cell lysate, relative to DMSO control (0 mM = 100 %), mean values of 3 independent tests
T1 construct: endogenous in cells; host or cells: HaCaT human keratinocytes (cell lysate)
Procedure: To determine proteasome activity in cell lysate, human keratinocyte cell lines (HaCaT cells) were seeded out in Petri-dishes (area: 22.1 cm^2) and harvested when they reached confluence. Isolation of the pure cell lysate included cell washing, incubation and homogenization in lysis buffer (250mM sucrose, 25mM HEPES (4-(2-hydroxyethyl)-1-piperazineethanesulfonic acid), 10mM MgCl2*6H2O, 1.3mM EDTA) and final cell lysis with liquid nitrogen. Determination of proteasome activity is based on the liberation of MCA and the corresponding fluorescence like described above in example 3.1. Proteasome activity was calculated relative to DMSO control (0 mM). Table Example 3.2: Measurement of proteasome activity of BIO1272 using cellular extracts (mean values of 3 independent tests)

isolated 20S proteasome = isolated 20S proteasome (Homo sapiens, UniProt P28074); experiment: Measurement of proteasome activity using isolated proteasome (chymotrypsin-like activity, MCA liberation); assay type: biochemical; conditions: mean values of 3 independent tests
Text: The method used herein to investigate the proteasome stimulating activity of a substance is based on the measurement of the 20S proteasome core activity. To detect this activity, the isolated 20S proteasome reacts with an oligopeptide, which is bound to a fluorochrome. With its chymotrypsin-like proteolytic activity, the proteasome degrades the oligopeptide and liberates the fluorochrome. For this assay 4-methyl-coumaryl-amide (MCA) was used as fluorochrome. Liberation of MCA correlates linearly with the proteasome activity. MCA wass detected using an excitation of 360 nm and an emission of 460 nm.
For interpretation, the measured proteasome activities / intensities of fluorescence were compared with pure MCA standards at distinct concentrations.
Two different controls were used for each assay. One "ordinary" control (C) which consisted of isolated proteasome alone, and a DMSO-control (DC). DC was necessary because all substances were diluted in DMSO. Proteasome activity was calculated relative to DMSO control (0 mM). Table Example 3.1: Measurement of proteasome activity of BIO1272 using isolated proteasome (mean values of 3 independent tests)

SIRT1 = SIRT1 assay: stimulation of SIRT1 expression in NHDF cells (immunofluorescence); assay type: cell-based, human; conditions: concentration 30 µM; NHDF cells treated 48 h; mean values of at least 2 independent tests
Procedure: NHDF cells (normal human dermal fibroblasts) were seeded in 96-well plates. After 24 h cultivation at 37 °C and 5% CO2 in DMEM (Dulbecco's Modified Eagle Medium), cells were treated with test substances for another 48 h. After washing the cells with PBS (phosphate buffered saline), the cells were fixed with paraformaldehyde and permeabilized. Then they were washed again and blocked with BSA (bovine serum albumen), followed by incubation with […]. After extensive washing, the fluorescence is measured in a microplate reader and fluorescence images were recorded on a fluorescence microscope with an attached […]. The stimulation of SIRT1 expression was calculated by: StimulationofSIRT1expression[%] = ((RFUtestesubstance−RFUbackground)/(RFUcontrol−RFUbackground)×100)−100 [formula] RFU test substance = relative fluorescent units of the wells with test substance, stained completely RFU control = relative fluorescent units of the wells without test substance, stained completely RFU background = relative fluorescent units of the wells without test substance, stained only with secondary antibody. Table Example 2: Stimulation of SIRT1 expression by the individual substances (mean values of at least 2 independent tests)

fish = conditions: cited from earlier work
yeast = conditions: cited from earlier work

| SMILES | Stimulation of SIRT1 expression (SIRT1) [%] | other results |
| --- | --- | --- |
| CC(C)NC(=O)O[C@@H]1C[C@H](C)CC[C@H]1C(C)C [BIO1272, Isopropyl-carbamic acid (1R,2S,5R)-2-isopropyl-5-methyl-cyclohexyl ester] | – | Relative proteasome activity [%] (proteasome; 5mM BIO1272): 105%; Relative proteasome activity [%] (proteasome; 10mM BIO1272): 120%; Relative proteasome activity [%] (proteasome; 20mM BIO1272): 140%; Relative proteasome activity [%] (isolated 20S proteasome; 5mM BIO1272, relative to DMSO control (0 mM = 100 %)): 125%; Relative proteasome activity [%] (isolated 20S proteasome; 10mM BIO1272, relative to DMSO control (0 mM = 100 %)): 210%; Relative proteasome activity [%] (isolated 20S proteasome; 20mM BIO1272, relative to DMSO control (0 mM = 100 %)): 250% |
| CCCCNC(=O)O[C@@H]1C[C@H](C)CC[C@H]1C(C)C [BIO1267, n-Butyl-carbamic acid (1R,2S,5R)-2-isopropyl-5-methyl-cyclohexyl ester] | 29 | – |
| CCc1ccc(NC(=O)OC2CC(C)CC(C)C2)cc1 (stereo not shown) [BIO1823, (4-Ethyl-phenyl)-carbamic acid 3,5-dimethyl-cyclohexyl ester] | 66 | – |
| Oc1ccc(C=Cc2cc(O)cc(O)c2)cc1 [Resveratrol] | – | extending lifespan (fish): 60%; extending lifespan (yeast): 70% |
| CCCCNC(=O)OC1CCCCC1C(C)C (stereo not shown) [BIO1841, n-Butyl-carbamic acid 2-isopropyl-cyclohexyl ester] | 14 | – |
| CCC(C)NC(=O)OC1CCCC(C)C1C (stereo not shown) [BIO1845, sec-Butyl-carbamic acid 2,3-dimethyl-cyclohexyl ester] | 52 | – |
| CCCCCCNC(=O)O[C@@H]1C[C@H](C)CC[C@H]1C(C)C [BIO1271, Hexyl-carbamic acid (1R,2S,5R)-2-isopropyl-5-methyl-cyclohexyl ester] | 66 | – |
| CC(C)[C@@H]1CC[C@@H](C)C[C@H]1OC(=O)Nc1ccccc1 [BIO1580, Phenyl-carbamic acid (1R,2S,5R)-2-isopropyl-5-methyl-cyclohexyl ester] | 117 | – |
| CCCCNC(=O)OC1C(C)CCC(C)C1C (stereo not shown) [BIO1617, n-Butyl-carbamic acid 2,3,6-trimethyl-cyclohexyl ester] | 24 | – |
| CCCCNC(=O)O[C@H]1C[C@@H](C)CC[C@@H]1C(C)C [BIO1860, Butyl-carbamic acid (1S,2R,5S)-2-isopropyl-5-methyl-cyclohexyl ester] | 47 | – |
